Measurements as given in ChEMBL document CHEMBL3784917, “Recent Progress in Histone Demethylase Inhibitors” (J Med Chem, 2016).
Each block holds one compound with its values, some of them ahead of it.

Key:
[1] = target: Lysine-specific demethylase 6B (Homo sapiens, UniProt O15054); assay: Inhibition of KDM6B (unknown origin) preincubated for 15 mins followed by histone substrate addition measured after 1 hr by alphascreen assay
Egl nine homolog 1 [2] = target: T1, Egl nine homolog 1 (Homo sapiens, UniProt Q9GZT9); assay: Inhibition of PHD2 (unknown origin) preincubated for 15 mins followed by histone substrate addition measured after 1 hr by alphascreen assay
T1 sequence (Q9GZT9 whole entry): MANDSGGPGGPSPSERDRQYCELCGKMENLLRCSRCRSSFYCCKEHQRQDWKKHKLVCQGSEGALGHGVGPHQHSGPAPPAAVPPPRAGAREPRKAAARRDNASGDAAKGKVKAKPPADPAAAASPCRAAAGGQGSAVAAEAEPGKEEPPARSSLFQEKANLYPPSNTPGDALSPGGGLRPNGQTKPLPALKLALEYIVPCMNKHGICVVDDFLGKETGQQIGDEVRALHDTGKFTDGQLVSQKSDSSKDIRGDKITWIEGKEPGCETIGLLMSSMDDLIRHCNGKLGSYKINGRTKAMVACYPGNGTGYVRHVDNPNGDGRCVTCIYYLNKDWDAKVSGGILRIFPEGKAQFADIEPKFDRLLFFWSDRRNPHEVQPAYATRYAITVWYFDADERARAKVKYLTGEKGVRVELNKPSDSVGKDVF

[3] = Inhibition of FIH (unknown origin) using ankyrin peptide substrate preincubated for 5 mins followed by substrate addition measured after 5 mins MALDI-TOF mass spectrometric analysis; parameters: species or system Homo sapiens
MCF7 = assay: Antiproliferative activity against human MCF7 cells assessed as reduction in cell viability after 120 hrs by ATPlite assay; type: functional, cell-based; conditions: MCF7, 120 h
[4] = target: Lysine-specific demethylase 5C (Homo sapiens, UniProt P41229)
Chain of Lysine-specific demethylase 5C (P41229 whole entry, the tested form may be a part): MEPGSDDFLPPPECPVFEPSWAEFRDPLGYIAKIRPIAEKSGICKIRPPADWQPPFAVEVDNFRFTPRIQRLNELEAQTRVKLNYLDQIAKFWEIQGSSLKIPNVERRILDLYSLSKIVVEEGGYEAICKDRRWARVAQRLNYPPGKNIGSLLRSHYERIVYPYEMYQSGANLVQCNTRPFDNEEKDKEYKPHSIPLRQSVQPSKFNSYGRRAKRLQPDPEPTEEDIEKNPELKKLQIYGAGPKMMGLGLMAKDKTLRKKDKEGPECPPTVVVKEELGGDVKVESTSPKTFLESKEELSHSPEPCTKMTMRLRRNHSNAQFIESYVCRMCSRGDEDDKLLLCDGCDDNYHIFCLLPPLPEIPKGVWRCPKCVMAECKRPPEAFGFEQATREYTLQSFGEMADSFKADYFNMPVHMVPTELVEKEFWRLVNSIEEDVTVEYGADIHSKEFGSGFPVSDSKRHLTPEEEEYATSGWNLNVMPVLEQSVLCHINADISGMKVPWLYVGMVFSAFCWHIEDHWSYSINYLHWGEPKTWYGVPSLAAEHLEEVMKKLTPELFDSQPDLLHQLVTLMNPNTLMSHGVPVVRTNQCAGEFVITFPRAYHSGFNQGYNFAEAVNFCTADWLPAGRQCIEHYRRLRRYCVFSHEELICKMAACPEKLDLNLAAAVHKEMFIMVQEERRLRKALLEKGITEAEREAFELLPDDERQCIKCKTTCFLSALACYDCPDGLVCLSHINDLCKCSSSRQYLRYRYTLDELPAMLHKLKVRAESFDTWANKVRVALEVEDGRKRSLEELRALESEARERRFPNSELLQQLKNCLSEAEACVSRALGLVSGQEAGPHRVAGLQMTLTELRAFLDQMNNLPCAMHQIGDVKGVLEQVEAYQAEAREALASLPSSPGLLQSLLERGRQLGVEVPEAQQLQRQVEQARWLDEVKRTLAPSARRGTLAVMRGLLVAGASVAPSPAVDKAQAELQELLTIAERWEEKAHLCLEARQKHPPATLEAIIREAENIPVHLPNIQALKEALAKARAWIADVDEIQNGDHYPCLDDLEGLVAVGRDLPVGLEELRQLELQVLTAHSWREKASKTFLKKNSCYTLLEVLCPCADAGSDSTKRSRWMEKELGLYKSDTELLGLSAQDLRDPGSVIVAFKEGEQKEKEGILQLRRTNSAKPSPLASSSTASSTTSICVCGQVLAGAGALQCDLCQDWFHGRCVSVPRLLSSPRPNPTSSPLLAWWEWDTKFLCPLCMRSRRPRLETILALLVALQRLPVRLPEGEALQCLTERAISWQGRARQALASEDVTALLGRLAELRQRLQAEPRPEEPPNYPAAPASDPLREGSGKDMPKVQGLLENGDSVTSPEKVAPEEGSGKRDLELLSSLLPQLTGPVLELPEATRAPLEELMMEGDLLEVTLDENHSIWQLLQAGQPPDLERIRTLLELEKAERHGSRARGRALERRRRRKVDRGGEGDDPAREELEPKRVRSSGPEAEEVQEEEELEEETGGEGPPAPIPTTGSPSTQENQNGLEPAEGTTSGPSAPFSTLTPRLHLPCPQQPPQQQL

[5] = target: T2, Lysine-specific demethylase 3A (Homo sapiens, UniProt Q9Y4C1); assay: Inhibition of recombinant human N-terminal FLAG-tagged KDM3A (2 to 1322 residues) expressed in baculovirus infected sf9 cells using biotin-H3K9me as substrate preincubated for 10 mins followed by substrate addition measured after 10 mins by AlphaLisa assay
T2 sequence (Q9Y4C1 whole entry): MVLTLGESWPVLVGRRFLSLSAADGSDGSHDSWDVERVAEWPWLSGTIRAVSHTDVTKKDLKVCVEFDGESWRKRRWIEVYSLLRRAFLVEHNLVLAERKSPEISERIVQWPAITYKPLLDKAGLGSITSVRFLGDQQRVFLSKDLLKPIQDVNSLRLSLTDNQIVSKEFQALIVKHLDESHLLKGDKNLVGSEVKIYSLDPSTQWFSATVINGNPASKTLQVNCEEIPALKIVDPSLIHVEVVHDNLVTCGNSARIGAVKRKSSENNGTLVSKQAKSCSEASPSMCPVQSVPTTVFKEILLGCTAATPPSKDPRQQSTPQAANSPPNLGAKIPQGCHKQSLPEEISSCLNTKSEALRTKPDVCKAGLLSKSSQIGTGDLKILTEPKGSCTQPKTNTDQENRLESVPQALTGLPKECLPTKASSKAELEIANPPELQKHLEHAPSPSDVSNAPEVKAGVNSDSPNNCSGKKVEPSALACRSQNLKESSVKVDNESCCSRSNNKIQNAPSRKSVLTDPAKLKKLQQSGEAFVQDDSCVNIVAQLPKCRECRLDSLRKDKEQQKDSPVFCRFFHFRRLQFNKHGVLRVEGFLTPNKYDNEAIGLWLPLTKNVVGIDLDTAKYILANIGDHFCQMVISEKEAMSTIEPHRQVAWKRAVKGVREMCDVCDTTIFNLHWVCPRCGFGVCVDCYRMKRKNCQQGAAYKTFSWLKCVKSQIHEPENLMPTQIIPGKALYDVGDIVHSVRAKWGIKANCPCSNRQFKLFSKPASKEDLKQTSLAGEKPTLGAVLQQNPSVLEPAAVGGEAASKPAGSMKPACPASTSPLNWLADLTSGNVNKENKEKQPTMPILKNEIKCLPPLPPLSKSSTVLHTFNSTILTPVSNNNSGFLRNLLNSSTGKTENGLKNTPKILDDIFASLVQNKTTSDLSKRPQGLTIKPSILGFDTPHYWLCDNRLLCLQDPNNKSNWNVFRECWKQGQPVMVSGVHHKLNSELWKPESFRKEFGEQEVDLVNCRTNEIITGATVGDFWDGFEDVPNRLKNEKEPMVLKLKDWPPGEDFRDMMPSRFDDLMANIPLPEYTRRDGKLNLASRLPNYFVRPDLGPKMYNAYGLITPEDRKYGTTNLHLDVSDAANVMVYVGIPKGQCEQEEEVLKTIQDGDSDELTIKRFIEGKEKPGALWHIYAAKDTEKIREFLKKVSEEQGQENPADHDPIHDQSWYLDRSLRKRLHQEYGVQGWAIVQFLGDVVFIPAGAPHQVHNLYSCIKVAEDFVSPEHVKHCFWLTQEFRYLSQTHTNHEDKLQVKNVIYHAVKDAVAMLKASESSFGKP

[6] = Antiproliferative activity against human KMS-12-BM cells assessed as reduction in cell viability after 120 hrs by ATPlite assay; type: functional, cell-based
[7] = Antiproliferative activity against human MM1S cells assessed as reduction in cell viability after 120 hrs by ATPlite assay; type: functional, cell-based; conditions: MM1.S
[8] = target: T3, Lysine-specific demethylase 2A (Homo sapiens, UniProt Q9Y2K7); assay: Inhibition of KDM2A (unknown origin) after 24 hrs by alphascreen assay
T3 sequence (Q9Y2K7 whole entry): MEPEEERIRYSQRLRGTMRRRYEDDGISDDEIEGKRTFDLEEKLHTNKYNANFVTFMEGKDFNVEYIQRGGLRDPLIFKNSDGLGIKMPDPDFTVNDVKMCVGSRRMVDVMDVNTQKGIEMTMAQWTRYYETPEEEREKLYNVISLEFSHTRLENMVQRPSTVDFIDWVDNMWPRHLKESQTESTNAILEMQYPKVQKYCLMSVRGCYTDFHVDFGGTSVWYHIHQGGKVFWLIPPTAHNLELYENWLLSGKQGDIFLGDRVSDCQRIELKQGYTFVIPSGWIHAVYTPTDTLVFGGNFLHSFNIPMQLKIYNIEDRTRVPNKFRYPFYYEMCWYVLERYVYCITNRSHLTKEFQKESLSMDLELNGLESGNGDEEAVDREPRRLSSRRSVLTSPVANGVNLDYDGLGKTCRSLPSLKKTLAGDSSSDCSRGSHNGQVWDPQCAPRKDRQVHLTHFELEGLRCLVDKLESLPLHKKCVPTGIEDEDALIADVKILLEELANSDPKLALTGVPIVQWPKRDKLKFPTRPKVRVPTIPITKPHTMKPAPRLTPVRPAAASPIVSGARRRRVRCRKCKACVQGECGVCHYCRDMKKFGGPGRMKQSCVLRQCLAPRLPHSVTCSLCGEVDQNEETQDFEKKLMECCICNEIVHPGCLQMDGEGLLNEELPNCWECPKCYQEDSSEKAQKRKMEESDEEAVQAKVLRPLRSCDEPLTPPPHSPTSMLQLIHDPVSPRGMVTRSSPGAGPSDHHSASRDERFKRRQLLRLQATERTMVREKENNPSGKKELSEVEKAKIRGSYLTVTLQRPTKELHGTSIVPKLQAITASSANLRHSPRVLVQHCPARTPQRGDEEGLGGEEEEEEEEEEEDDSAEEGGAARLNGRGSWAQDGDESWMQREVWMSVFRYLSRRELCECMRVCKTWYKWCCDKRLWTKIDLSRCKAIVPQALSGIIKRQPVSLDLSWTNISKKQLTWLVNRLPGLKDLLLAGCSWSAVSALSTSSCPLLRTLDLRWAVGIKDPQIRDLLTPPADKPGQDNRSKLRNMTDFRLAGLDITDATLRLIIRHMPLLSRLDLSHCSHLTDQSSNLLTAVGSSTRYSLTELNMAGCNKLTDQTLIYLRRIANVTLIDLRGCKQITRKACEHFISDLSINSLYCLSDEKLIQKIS

Egl nine homolog 1 [9] = target: T1, Egl nine homolog 1; assay: Inhibition of PHD2 catalytic domain (unknown origin) after 24 hrs by alphascreen assay

Chain of Lysine-specific demethylase 6B (O15054 whole entry): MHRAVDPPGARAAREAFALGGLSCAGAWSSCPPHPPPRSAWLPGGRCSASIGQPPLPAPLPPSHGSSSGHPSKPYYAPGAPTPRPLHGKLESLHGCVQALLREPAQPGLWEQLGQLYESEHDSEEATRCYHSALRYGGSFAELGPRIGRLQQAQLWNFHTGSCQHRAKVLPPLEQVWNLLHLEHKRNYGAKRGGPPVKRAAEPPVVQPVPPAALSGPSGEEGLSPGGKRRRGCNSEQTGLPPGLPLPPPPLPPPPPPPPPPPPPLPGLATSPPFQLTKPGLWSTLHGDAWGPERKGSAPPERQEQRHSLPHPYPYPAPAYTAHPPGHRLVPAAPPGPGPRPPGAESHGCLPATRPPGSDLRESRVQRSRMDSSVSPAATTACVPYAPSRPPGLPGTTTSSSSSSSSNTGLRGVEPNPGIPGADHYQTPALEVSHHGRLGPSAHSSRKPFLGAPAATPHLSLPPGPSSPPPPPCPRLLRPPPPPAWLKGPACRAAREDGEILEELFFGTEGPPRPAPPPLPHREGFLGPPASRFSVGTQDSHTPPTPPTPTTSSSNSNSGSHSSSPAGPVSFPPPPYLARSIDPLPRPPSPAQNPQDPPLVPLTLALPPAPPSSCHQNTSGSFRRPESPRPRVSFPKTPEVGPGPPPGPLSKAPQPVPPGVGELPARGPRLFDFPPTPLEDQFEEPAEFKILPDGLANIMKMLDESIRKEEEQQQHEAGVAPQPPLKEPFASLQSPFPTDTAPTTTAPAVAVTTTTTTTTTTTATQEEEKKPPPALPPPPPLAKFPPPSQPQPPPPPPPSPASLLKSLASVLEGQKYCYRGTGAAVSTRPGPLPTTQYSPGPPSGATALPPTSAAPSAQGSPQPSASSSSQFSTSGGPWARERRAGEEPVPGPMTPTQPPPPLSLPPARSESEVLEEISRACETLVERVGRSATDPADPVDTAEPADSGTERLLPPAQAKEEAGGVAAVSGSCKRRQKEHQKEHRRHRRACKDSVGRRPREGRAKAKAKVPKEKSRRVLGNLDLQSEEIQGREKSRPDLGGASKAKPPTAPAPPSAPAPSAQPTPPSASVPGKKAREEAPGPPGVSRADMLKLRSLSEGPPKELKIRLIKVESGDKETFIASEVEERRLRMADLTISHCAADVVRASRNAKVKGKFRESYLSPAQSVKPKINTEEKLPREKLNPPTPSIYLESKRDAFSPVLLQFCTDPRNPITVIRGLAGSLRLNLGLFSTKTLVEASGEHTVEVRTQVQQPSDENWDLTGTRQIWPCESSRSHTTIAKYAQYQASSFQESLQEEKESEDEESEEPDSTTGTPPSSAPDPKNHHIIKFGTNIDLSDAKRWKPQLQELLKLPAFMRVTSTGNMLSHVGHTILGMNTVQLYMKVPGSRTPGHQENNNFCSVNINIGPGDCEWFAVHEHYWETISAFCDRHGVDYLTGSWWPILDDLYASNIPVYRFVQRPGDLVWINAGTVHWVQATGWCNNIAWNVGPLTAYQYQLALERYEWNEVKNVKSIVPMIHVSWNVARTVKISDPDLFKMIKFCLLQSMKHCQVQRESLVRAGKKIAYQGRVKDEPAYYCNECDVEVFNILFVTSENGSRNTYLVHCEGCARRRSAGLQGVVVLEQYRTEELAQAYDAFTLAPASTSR

SMILES: Cc1ccsc1C(NC(=O)c1ccccc1)c1cc(Cl)c2cccnc2c1O (racemic)
- IC50 [1]: 106000 nM
- IC50 (Egl nine homolog 1 [2]): 96000 nM
- IC50 [3]: > 100000 nM

SMILES: CCN(CCN(C)C)C(=O)CNCc1cc(CNC(=O)C(F)(F)F)ccn1
- IC50 [5]: > 2500 nM
- EC50 [6]: < 250 nM
- EC50 [7]: < 250 nM

SMILES: CCCCCCCCOC(=O)c1ccc(O)c2ncccc12
- IC50 [8]: > 100000 nM
- IC50 (Egl nine homolog 1 [9]): > 100000 nM

The remaining lines, values ahead:

- IC50 (MCF7): 1000 nM
- IC50 [4]: 1000 nM
SMILES: CCN(CCN(C)C)C(=O)CNCc1cc(C(=O)O)ccn1

- IC50 [5]: > 2500 nM
- EC50 (MCF7): < 250 nM
SMILES: CCN(CC)CCCCNCc1cc(C=O)ccn1
